Laboratory results as given in US20250043349A1, “DEORPHANIZING ODORS USING SINGLE CELL SEQUENCING” (PRESIDENT AND FELLOWS OF HARVARD COLLEGE, priority 2021, published 2025).

Experiments:
olfactory bulb glomeruli = experiment: In vivo olfactory bulb imaging of OSN axons (GCaMP glomerular odor responses); design: species or system mouse; settings: odor panel, anesthetized mice
Protocol: All surgical procedures were performed in accordance with the guidelines provided by IACUC at Harvard Medical School. Prior to surgery. 4-6 weeks old Omp-IRES-Cre: Ai951) (GCaMP6f) mice, were subcutaneously injected with the analgesic Buprenorphine-SR (1 mg/kg) and anesthetized 1-2 hours later with isoflurane (3% induction. 1-2% maintenance). The skin overlying the left olfactory bulb was retracted and the underlying periosteum was scraped off with a scalpel. The skull was subsequently cleaned with saline and allowed to dry. A 2.5 mm circular craniotomy was made using a biopsy punch (Integra Miltex) taking care not to damage the underlying dura. Gelfoam saturated with cold saline was placed over the craniotomy to reduce swelling and suppress minor bleeds. A custom cranial window was constructed using two circular coverslips (Warner Instruments, 3 mm. #1 thickness). […]
Chronic imaging of the dorsal surface of the olfactory bulb was performed after recovery from the surgery (1-2 weeks) under ketamine (100 mg/kg) and xylazine (10 mg/kg) induced anesthesia, to specifically isolate responses in OSN axons with less modulation from local interneurons and long-range cortical feedback. Depth of anesthesia was assessed every 15 minutes via the toc-pinch reflex and intraperitoneal ketamine was administered at 1/3 concentration of the induction dose for anesthesia maintenance. […]

[1] = test system: OSN subtypes (odorant receptors, ORs); experiment: Act-Seq: scSeq of olfactory epithelium after two-hour odor exposure (IEG expression, activated ORs, activation score); format: in vivo, mouse
Protocol: Act-Seq (Wu et al., 2017) was performed following odor exposure to quantify odor-evoked responses in each OSN subtype (defined by their expressed OR) across the entire OR repertoire. Mice were habituated to a reversed light cycle for at least for 1 week before odor exposure, transferred to a new disposable cage with regular bedding/food and kept overnight in a satellite animal facility. On the experimental day, each mouse was first transferred to a new empty disposable cage during the dark cycle and habituated for 20 minutes. Empty cages were used to avoid any activation by odorants present within the environments in which the mice were housed. Odors were added to a piece of filter paper (100 μL of odorant) in a 35 mm petri dish and a cotton ball (200 μL of odorant) and placed in each cage. After 2 hours, mice were euthanized, and dissociation was performed as described below. Odors used in this study were as follows. Dipropylene glycol (DPG, control solvent), and 10% of acetophenone, octanal, 2-hydroxy acetophenone, 4-methyl acetophenone, and methyl salicylate. As a control, mice were exposed to DPG alone for 30 min. This control condition was used to account for any drift in transcriptomes during the overnight housing and habituation periods prior to odor exposure and designed to capture the transcriptome in the state it would have been in the odor-exposed animals prior to odor exposure. […] Act-Seq was also performed using lower concentrations of acetophenone (1.0, 0.1, 0.01%) and 2-hydroxy acetophenone (0.1%, 0.01%). All odor dilutions were made with DPG, and all odors and DPG were obtained from Sigma. To assess the persistence of any transcriptional changes observed as a result of odor exposure, a cohort of mice was exposed to acetophenone or DPG for 2 hours, transferred to new clean regular home cages, and subjected to scSeq after an additional 22 hours.
The main olfactory epithelium was dissected in Earle's Balanced Salt Solution (EBSS, pre-treated with carbogen for at least 5 minutes before each use, Worthington), then transferred to a round-bottomed glass dish containing 750 μL of papain solution (one vial of Papain (Worthington) dissolved in 5 mL of EBSS and then equilibrated 10 minutes at 37° C.) and 100 μL of DNase solution (one vial of DNase-I (Worthington) dissolved in 500 μL of EBSS). Bone was removed from the epithelium under a dissecting microscope and the resulting epithelial tissue was placed in a 5 mL tube (Becton Dickinson) with an additional 1.75 mL of Papain solution and 200 μL of DNase-I solution and rocked gently for-60 minutes at 37° C. The tissue was then gently triturated with a 5 mL pipette 10-15 times, passed through a 40 μm cell strainer (Becton Dickinson), and washed with 1 mL of Hibernate-A medium containing 10% Fetal Bovine Serum (FBS. GIBCO). Filtered cells were transferred to a new 5 mL tube and centrifuged 5 minutes at 300×g. The supernatant was decanted, the cells were washed once with 4 mL Hibernate-A containing 10% FBS and resuspended in 1 mL Hibernate-A containing 0.2% FBS. Importantly, each of the solutions above contained transcriptional inhibitors (5 μg/mL of Actinomycin D, 10 μg/mL of Anisomycin and 10 μM of Triptolide, all obtained from Sigma) for all experiments, especially the Act-Seq experiments, except where noted.
OSN subtypes that were responsive to odorants were identified via a two-step process. First, individual OSNs (as defined by the expressed OR) were determined as activated based on their mean z-scored immediate early genes (IEG) expression. A set of 10 IEGs were used (Btg2, Egr1, Fos, Fosb, Gm13889, Junb, Nr4a1, Nr4a2, Pcdh10, and Srxn1). […] The set of 10 IEGs was used since even though all of the IEGs were specific to acute activation by odors, they were still only detected in a minority of cells due to the sparse nature of scSeq. […]

OR10A6 [2] = molecular target: T1, OR10A6 (Homo sapiens, UniProt Q8NH74); settings: previous study (doi.org/10.3390/molecules25204743); cited from earlier work
T1 sequence (Q8NH74 1-314): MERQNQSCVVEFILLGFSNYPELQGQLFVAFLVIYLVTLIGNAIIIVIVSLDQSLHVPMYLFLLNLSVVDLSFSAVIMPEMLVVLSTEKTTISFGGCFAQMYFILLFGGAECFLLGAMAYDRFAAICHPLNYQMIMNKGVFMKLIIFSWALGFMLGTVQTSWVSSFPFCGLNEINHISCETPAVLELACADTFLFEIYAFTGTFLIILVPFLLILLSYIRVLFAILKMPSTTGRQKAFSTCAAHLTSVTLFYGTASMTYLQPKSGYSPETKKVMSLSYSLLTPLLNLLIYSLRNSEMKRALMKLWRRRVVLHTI

OR10A6 [3] = molecular target: T1, OR10A6; experiment: In vivo human act-seq: nasal swab after 1 hour exposure, IEG expression in OSNs; design: endogenous in cells; host or cells: olfactory sensory neurons of a human subject, exposed in vivo and collected by nasal swab; settings: human subject
Protocol: FIG. 16A-16D show in vivo human act-seq data. FIG. 16A depicts a UMAP plot showing olfactory cells obtained from a human subject using a nasal swab after 1 hour exposure to 2-phenylethanol, which smells like rose oil. 1 hour exposure is performed by asking the subject to sniff the odor vial every 2-5 minutes. All major olfactory cell types were identified. OSN: olfactory sensory neuron lineage (progenitors and immature or mature neurons). SUS: sustentacular cells. HBC: horizontal basal cell. MV: microvillar cells. BG: Bowman's gland cells. FIG. 16B examines total count normalized expression of GFY gene (a mature OSN marker) in the UMAP plot. FIG. 16C examines total count normalized expression of immediate early genes (IEG) in OSNs that expressed odorant receptors (OR). […] Horizontal bars indicate mean across cells.

M72 (Olfr160) = experiment: Act-Seq activation score in OSNs expressing M72; format: in vivo, mouse; settings: compared with acetophenone
Protocol: Act-Seq (Wu et al., 2017) was performed following odor exposure to quantify odor-evoked responses in each OSN subtype (defined by their expressed OR) across the entire OR repertoire. Mice were habituated to a reversed light cycle for at least for 1 week before odor exposure, transferred to a new disposable cage with regular bedding/food and kept overnight in a satellite animal facility. On the experimental day, each mouse was first transferred to a new empty disposable cage during the dark cycle and habituated for 20 minutes. Empty cages were used to avoid any activation by odorants present within the environments in which the mice were housed. Odors were added to a piece of filter paper (100 μL of odorant) in a 35 mm petri dish and a cotton ball (200 μL of odorant) and placed in each cage. […]
The remaining 169 activation genes that were also considered as HVGs often had weak loadings across multiple GEPs. […] To summarize the effects of odor activation across this set of activation genes, the TPT-expression of these activation genes were z-scored (using means and standard deviations for these genes in the control, acetophenone, and octanal datasets, identified by subsampling equal numbers of cells across all ORs expressed in at least 6 cells across 100 restarts). […] PCA was performed on the differences in z-scored activation gene expression between control and odor conditions. […]

M72 receptor = settings: Arneodo et al. 2018; Zhang et al. 2012; cited from earlier work

CCCCC=O [Pentanal]
breadth of responses across the population of glomeruli (olfactory bulb glomeruli): broadest responses across the population of glomeruli

CCCCCCCC=O [octanal]
overlap between ORs activated by ACE and OCT, odds ratio ([1]; Fisher's exact test, overlap at chance levels): 1.42 | z-scored expression of 10 immediate early genes (IEGs) for each OSN subtype, odor vs control ([1]; odor vs control (DPG) conditions): higher in the odor conditions

OCCc1ccccc1 [2-phenylethanol]
activation of OR10A6 in vitro (OR10A6 [2]): activated | mean total count normalized expression of 9 IEGs in OSNs expressing OR10A6 vs other ORs (OR10A6 [3]): much higher IEG expression

2-hydroxyacetophenone
activation scores in OSNs expressing M72 (M72 (Olfr160)): higher activation scores than acetophenone | binding to the M72 receptor relative to acetophenone (M72 receptor): binds more strongly to the M72 receptor
